According to publication PMC9412300, “In Vitro Evaluation and Mitigation of Niclosamide’s Liabilities as a COVID-19 Treatment” (Vaccines, 2022):
Several values for one entry are separate records, joined by “and”; a condition that tells them apart may be missing. Equal entries are not always repeated. Where two headings read alike, the source gives them in different places.

Experiments:
[1] = system: SARS-CoV-2 B.1.1.7 variant; experiment: microbe, parasite or virus in culture; format: cell-based; conditions: for IC50: read-out: Vero-E6 (B.1.1.7) IC50
[2] = system: SARS-CoV-2 WA1 variant; experiment: microbe, parasite or virus in culture; format: cell-based
[3] = Cell viability in VeroE6, shortened 24 h infection assay; conditions: African green monkey, VeroE6 cells infected with SARS-CoV-2, CC50 in shortened assay, VeroE6, 1 h preincubation, 24 h infection, top 10 μM
[4] = system: SARS-CoV-2 B.1.1.7 variant; format: cell-based
[5] = system: SARS-CoV-2 B.1.1.7 variant; experiment: microbe, parasite or virus in culture; format: cell-based
[6] = Severe acute respiratory syndrome coronavirus 2, Vero C1008, 48 h
[7] = Severe acute respiratory syndrome coronavirus 2, NCI-H1437, 48 h
[8] = VeroE6, B.1.1.7, 156, 313, 625 nM niclosamide vs viral control

SMILES	IC50 [1] [µM]	IC50 ([2]; read-out: H1437 (WA1) IC50) [µM]	H1437 (WA1) IC50 [2]	further results
CC(C)(C)c1cccc(C(=O)Nc2ccc([N+](=O)[O-])cc2Cl)c1O [Compound 31]	> 20	> 20		
Cc1ccc(NC(=O)c2cc(Cl)ccc2O)c(Cl)c1 [Compound 6]	0.76	> 20		
CC(C)(C)c1ccc(O)c(C(=O)Nc2ccc(C(=O)O)cc2F)c1 [Compound 15]	> 20		Inverted	
Cc1cc(NC(=O)c2cc(C(C)(C)C)cc(C(C)(C)C)c2O)ccc1C(=O)O [Compound 20]	> 20	> 20		
CC(C)(C)c1cccc(C(=O)Nc2ccc(N)cc2Cl)c1O [Compound 32]	> 20	> 20		
CC(C)(C)c1cc(C(=O)Nc2ccc(N)cc2Cl)c(O)c(C(C)(C)C)c1 [Compound 19]	> 20		Inverted	
O=C(O)c1ccc(NC(=O)c2cc(C3CCCCC3)ccc2O)c(Cl)c1 [Compound 22]	4.51		Inverted	exacerbation of infection in H1437 (inverted concentration-response curves at high concentrations) [2]: exacerbate infection
COC(=O)c1ccc(NC(=O)c2cc(C3CCCCC3)ccc2O)c(Cl)c1 [Compound 21]	9.91	> 20		
O=C(Nc1ccc([N+](=O)[O-])cc1Cl)c1cc(Cl)ccc1O [Niclosamide]				selectivity index (CC50/IC50), VeroE6 [1]: 1.86 and < 2; IC50 [1, 6]: 0.564 µM; CC50 at 25 h [3]: > 10 µM; IC50 [2, 7]: 16.8 µM; maximum size of syncytia (max area of viral objects) [4, 8]: decreased; number of individually infected cells within a well (viral objects per well) [4, 8]: reduced; N protein intensity of remaining viral objects ([4]; VeroE6, B.1.1.7, escalating concentrations 156, 313, 625 nM): increased; selectivity index (CC50/IC50), H1437 [5]: 1.67 and < 2; IC50 ([5]; Severe acute respiratory syndrome coronavirus 2, NCI-H1437): 0.261 µM
COc1ccc(O)c(C(=O)Nc2ccc(C(=O)O)cc2C)c1 [Compound 28]	> 20		Inverted	
CC(C)(C)c1ccc(O)c(C(=O)Nc2ccc([N+](=O)[O-])cc2Cl)c1 [Compound 11]				IC50 [1, 6]: 0.423 µM; IC50 [2, 7]: 3.1 µM
Cc1cc(C(=O)O)ccc1NC(=O)c1cc(C(C)(C)C)ccc1O [Compound 16]	> 20		Inverted	
Cc1cc(NC(=O)c2cc(C(C)(C)C)cc(C(C)(C)C)c2O)ccc1C(=O)O [Compound 27]	16.5			
COc1ccc(NC(=O)c2cc(Cl)ccc2O)c(Cl)c1 [Compound 10]	4.25		Inverted	exacerbation of infection in H1437 (inverted concentration-response curves at high concentrations) [2]: exacerbate infection
CC(C)(C)c1ccc(O)c(C(=O)Nc2ccc(C(=O)O)cc2Cl)c1 [Compound 14]	> 20		Inverted	
O=C(O)c1ccc(NC(=O)c2cc(Cl)ccc2O)c(Cl)c1 [Compound 8]	> 20		Inverted	exacerbation of infection in H1437 (inverted concentration-response curves at high concentrations) [2]: exacerbate infection

SMILES	IC50 [1] [µM]	IC50 ([2]; read-out: H1437 (WA1) IC50) [µM]	H1437 (WA1) IC50 [2]	further results
COc1ccc(O)c(C(=O)Nc2ccc([N+](=O)[O-])cc2Cl)c1 [Compound 4]	1.77	10.9		
CC(C)(C)c1cccc(C(=O)Nc2ccc(NS(C)(=O)=O)cc2Cl)c1O [Compound 33]	2.88		Inverted	exacerbation of infection in H1437 (inverted concentration-response curves at high concentrations) [2]: exacerbate infection
Cc1ccc(O)c(C(=O)Nc2ccc([N+](=O)[O-])cc2Cl)c1 [Compound 3]	1.25	2.6		
CC(C)(C)c1cccc(C(=O)Nc2ccc(C(=O)O)cc2Cl)c1O [Compound 30]	> 20		Inverted	
CC(C)(C)c1cc(C(=O)Nc2ccc(C(=O)O)cc2Cl)c(O)c(C(C)(C)C)c1 [Compound 26]	> 20	> 20		
COC(=O)c1ccc(NC(=O)c2cc(C(F)(F)F)ccc2O)c(C)c1 [Compound 23]	> 20	> 20		
N#Cc1ccc(NC(=O)c2cc(Cl)ccc2O)c(Cl)c1 [Compound 24]				IC50 [1, 6]: 0.348 µM; IC50 [2, 7]: 1.07 µM
COc1ccc(O)c(C(=O)Nc2ccc([N+](=O)[O-])cc2Cl)c1 [Compound 12]	1.5	16.9		
CC(C)(C)c1cc(C(=O)Nc2ccc(NS(C)(=O)=O)cc2Cl)c(O)c(C(C)(C)C)c1 [Compound 18]	> 20		Inverted	
O=C(Nc1ccc([N+](=O)[O-])cc1Cl)c1cccc(Cl)c1 [Compound 9]			complete loss of activity	Vero-E6 (B.1.1.7) IC50 [1]: complete loss of activity; IC50 [1, 6]: > 20 µM; IC50 [2, 7]: > 20 µM
COC(=O)c1ccc(NC(=O)c2cccc(C(C)(C)C)c2O)c(Cl)c1 [Compound 25]	> 20		Inverted	exacerbation of infection in H1437 (inverted concentration-response curves at high concentrations) [2]: exacerbate infection
O=C(Nc1ccccc1Cl)c1cc(Cl)ccc1O [Compound 5]	0.89	> 20		
COC(=O)c1ccc(NC(=O)c2cc(Cl)ccc2O)c(Cl)c1 [Compound 7]			Inverted	IC50 [1, 6]: 0.334 µM; exacerbation of infection in H1437 (inverted concentration-response curves at high concentrations) [2]: exacerbate infection
O=C(Nc1ccc([N+](=O)[O-])cc1Cl)c1ccccc1O [Compound 2]				IC50 [1, 6]: 0.296 µM; IC50 [2, 7]: 4.92 µM
COC(=O)c1ccc(NC(=O)c2cc(C(C)(C)C)ccc2O)c(Cl)c1 [Compound 13]	> 20	> 20		
O=C(Nc1ccc(Br)cc1Cl)c1cc(Cl)ccc1O [Compound 34]	0.76	3.49		
